From patent US8969360B2, “Compounds useful as inhibitors of ATR kinase” (Vertex Pharmaceuticals Incorporated, priority 2013, dated 2015)

Experiments:
ATR kinase = biological target: T1, ATR kinase (Homo sapiens, UniProt Q13535); assay: ATR Inhibition Assay (radioactive-phosphate incorporation); type: biochemical; conditions: Ki(app); 5 nM full-length ATR, 10 μM ATP, 800 μM target peptide, 25° C.
T1 construct: Assays were carried out at 25° C. in the presence of 5 nM full-length ATR
Description: Compounds were screened for their ability to inhibit ATR kinase using a radioactive-phosphate incorporation assay. Assays were carried out in a mixture of 50 mM Tris/HCl (pH 7.5), 10 mM MgCl2 and 1 mM DTT. Final substrate concentrations were 10 μM [γ-33P]ATP (3 mCi 33P ATP/mmol ATP, Perkin Elmer) and 800 μM target peptide (ASELPASQPQPFSAKKK (SEQ. ID NO: 1)).
Assays were carried out at 25° C. in the presence of 5 nM full-length ATR. An assay stock buffer solution was prepared containing all of the reagents listed above, with the exception of ATP and the test compound of interest. 13.5 μL of the stock solution was placed in a 96 well plate followed by addition of 2 μL of DMSO stock containing serial dilutions of the test compound (typically starting from a final concentration of 15 μM with 3-fold serial dilutions) in duplicate (final DMSO concentration 7%). The plate was pre-incubated for 10 minutes at 25° C. and the reaction initiated by addition of 15 μL [γ-33P]ATP (final concentration 10 μM).
The reaction was stopped after […] by the addition of 30 μL, 0.1M phosphoric acid containing 2 mM ATP. A multiscreen phosphocellulose filter 96-well plate (Millipore, Cat no. MAPHN0B50) was pretreated with 100 μL 0.2M phosphoric acid prior to the addition of 45 μL of the stopped assay mixture. The plate was washed with 5×200 μL 0.2M phosphoric acid. After drying, 100 μL Optiphase ‘SuperMix’ liquid scintillation cocktail (Perkin Elmer) was added to the well prior to scintillation counting (1450 Microbeta Liquid Scintillation Counter, Wallac).
After removing mean background values for all of the data points, Ki(app) data were calculated from non-linear regression analysis of the initial rate data using the Prism software package (GraphPad Prism version 3.0cx for Macintosh, GraphPad Software, San Diego Calif., USA).
Compounds with a Ki value of <0.01 μM are marked with “+++.” Compounds with a Ki value >0.01 μM but <1 μM are marked with “++.” Compounds with a Ki value >1 μM but <5 μM are marked with “+.”

[1] = system: HCT116 colorectal cancer cells; assay: Cisplatin Sensitization Assay (96 h cell viability MTS); type: cell-based; conditions: concentration of compound required to reduce the IC50 of Cisplatin alone by at least 3-fold; HCT116, 96 h MTS
Description: Compounds can be screened for their ability to sensitize HCT116 colorectal cancer cells to Cisplatin using a 96 h cell viability (MTS) assay. […] Compounds and Cisplatin are then both added simultaneously to the cell media in 2-fold serial dilutions from a top final concentration of 10 μM as a full matrix of concentrations in a final cell volume of 200 μl, and the cells are then incubated at 37° C. in 5% CO2. After 96 h, 40 μl of MTS reagent (Promega G358a) is added to each well and the cells are incubated for 1 h at 37° C. in 5% CO2. Finally, absorbance is measured at 490 nm using a SpectraMax Plus 384 reader (Molecular Devices) and the concentration of compound required to reduce the IC50 of Cisplatin alone by at least 3-fold (to 1 decimal place) can be reported.
Compounds with a Cisplatin sensitization value of <0.02 μM are marked with “+++.” Compounds with a Cisplatin sensitization value>0.02 μM but <0.2 μM are marked with “++.” Compounds with a Cisplatin sensitization value >0.2 μM but <5 μM are marked with “+.”

T1 sequence (Q13535 whole entry): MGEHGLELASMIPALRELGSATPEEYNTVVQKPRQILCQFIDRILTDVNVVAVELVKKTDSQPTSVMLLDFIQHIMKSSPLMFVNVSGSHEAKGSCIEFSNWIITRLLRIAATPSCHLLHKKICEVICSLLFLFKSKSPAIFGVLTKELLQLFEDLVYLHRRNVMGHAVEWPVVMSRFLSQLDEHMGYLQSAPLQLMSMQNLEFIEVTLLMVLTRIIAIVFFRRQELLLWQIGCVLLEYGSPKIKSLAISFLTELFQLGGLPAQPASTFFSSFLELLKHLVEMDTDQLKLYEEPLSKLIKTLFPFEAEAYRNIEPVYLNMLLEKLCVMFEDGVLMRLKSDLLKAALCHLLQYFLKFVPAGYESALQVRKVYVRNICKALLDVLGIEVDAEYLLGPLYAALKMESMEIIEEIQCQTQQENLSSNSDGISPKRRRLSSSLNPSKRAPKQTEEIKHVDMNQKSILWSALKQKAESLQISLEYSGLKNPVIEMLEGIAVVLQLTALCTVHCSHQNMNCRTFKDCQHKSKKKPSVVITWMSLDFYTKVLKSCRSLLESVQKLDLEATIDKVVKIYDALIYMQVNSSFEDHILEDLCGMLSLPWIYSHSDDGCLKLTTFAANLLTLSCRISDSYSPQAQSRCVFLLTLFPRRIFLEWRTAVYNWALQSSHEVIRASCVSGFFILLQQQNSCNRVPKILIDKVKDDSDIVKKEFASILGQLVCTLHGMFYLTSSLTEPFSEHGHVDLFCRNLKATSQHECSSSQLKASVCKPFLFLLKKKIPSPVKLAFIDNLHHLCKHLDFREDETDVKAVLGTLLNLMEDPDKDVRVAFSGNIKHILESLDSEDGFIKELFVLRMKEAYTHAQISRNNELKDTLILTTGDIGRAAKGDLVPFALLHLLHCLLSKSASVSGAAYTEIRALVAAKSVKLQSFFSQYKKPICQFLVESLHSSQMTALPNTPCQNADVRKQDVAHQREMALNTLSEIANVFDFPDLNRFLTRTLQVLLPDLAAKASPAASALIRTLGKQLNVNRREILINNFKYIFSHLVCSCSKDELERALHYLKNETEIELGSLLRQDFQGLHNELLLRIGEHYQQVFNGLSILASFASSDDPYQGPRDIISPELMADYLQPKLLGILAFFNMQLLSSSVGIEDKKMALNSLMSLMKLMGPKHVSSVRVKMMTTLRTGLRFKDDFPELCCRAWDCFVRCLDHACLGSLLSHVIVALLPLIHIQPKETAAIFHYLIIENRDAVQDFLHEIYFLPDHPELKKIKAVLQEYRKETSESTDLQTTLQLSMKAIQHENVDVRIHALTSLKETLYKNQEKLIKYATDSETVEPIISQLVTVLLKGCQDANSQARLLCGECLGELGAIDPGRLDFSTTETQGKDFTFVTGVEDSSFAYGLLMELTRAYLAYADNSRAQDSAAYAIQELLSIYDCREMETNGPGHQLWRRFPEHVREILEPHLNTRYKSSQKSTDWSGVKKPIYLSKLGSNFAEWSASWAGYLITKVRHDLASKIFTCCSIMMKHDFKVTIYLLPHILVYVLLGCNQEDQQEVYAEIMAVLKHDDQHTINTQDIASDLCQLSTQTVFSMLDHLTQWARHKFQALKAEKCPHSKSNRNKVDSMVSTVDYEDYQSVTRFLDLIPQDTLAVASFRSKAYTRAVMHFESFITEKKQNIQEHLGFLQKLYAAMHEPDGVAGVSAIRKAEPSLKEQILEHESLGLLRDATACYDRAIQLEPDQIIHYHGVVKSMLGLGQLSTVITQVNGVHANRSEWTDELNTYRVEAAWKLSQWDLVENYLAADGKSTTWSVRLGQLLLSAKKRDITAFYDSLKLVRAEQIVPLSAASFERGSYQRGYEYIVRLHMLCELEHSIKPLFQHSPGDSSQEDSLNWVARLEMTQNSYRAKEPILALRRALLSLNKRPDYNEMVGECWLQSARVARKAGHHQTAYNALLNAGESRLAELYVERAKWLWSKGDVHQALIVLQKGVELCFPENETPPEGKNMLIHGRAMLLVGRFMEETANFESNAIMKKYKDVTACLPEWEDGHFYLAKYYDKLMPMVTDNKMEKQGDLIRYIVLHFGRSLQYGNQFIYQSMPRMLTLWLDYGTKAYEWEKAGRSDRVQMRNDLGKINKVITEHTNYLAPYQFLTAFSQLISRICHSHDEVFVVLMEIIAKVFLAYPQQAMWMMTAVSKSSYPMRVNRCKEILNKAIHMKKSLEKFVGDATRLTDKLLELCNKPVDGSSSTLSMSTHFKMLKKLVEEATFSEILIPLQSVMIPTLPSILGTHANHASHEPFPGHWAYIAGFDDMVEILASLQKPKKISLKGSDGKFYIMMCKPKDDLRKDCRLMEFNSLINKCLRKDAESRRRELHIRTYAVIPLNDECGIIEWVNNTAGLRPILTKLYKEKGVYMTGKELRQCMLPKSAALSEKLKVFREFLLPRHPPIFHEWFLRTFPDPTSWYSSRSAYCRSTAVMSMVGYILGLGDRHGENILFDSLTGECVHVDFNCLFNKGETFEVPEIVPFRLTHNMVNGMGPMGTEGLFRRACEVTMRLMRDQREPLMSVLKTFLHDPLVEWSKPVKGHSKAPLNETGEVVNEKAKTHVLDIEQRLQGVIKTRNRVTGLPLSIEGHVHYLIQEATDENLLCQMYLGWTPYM

Compound	Ki (ATR kinase)	Synergy with Cisplatin [1]
CN(C)[C@H]1C[C@@H](Oc2ccncc2NC(=O)c2c(N)nn3ccc(C(F)(F)F)nc23)C1 [I-O-34, 2-amino-N-(4-((1s,3s)-3-(dimethylamino)cyclobutoxy)pyridin-3-yl)-5-(trifluoromethyl)pyrazolo[1,5-a]pyrimidine-3-carboxamide]	10 to 1000 nM	++ (Compounds with a Cisplatin sensitization value>0.02 μM but <0.2 μM are marked with “++.”)
CN(C)CCOCCOc1ccncc1NC(=O)c1c(N)nn2ccc(C(F)(F)F)nc12 [I-O-36, 2-amino-N-(4-(2-(2-(dimethylamino)ethoxy)ethoxy)pyridin-3-yl)-5-(trifluoromethyl)pyrazolo[1,5-a]pyrimidine-3-carboxamide]	10 to 1000 nM	++ (Compounds with a Cisplatin sensitization value>0.02 μM but <0.2 μM are marked with “++.”)
Nc1nn2ccc(C(F)(F)F)nc2c1C(=O)Nc1cnccc1OCC1CCC(N)CC1 (centres unmarked) [I-O-37, 2-amino-N-(4-((4-aminocyclohexyl)methoxy)pyridin-3-yl)-5-(trifluoromethyl)pyrazolo[1,5-a]pyrimidine-3-carboxamide]	10 to 1000 nM	++ (Compounds with a Cisplatin sensitization value>0.02 μM but <0.2 μM are marked with “++.”)
Nc1nn2ccc(C(F)(F)F)nc2c1C(=O)Nc1cnccc1OCCN1CC2(COC2)C1 [I-O-38, N-(4-(2-(2-oxa-6-azaspiro[3.3]heptan-6-yl)ethoxy)pyridin-3-yl)-2-amino-5-(trifluoromethyl)pyrazolo[1,5-a]pyrimidine-3-carboxamide]	10 to 1000 nM	+ (Compounds with a Cisplatin sensitization value >0.2 μM but <5 μM are marked with “+.”)
CN1CC[C@H](Oc2ccncc2NC(=O)c2c(N)nn3ccc(C(F)(F)F)nc23)C1 [I-O-40, (S)-2-amino-N-(4-((1-methylpyrrolidin-3-yl)oxy)pyridin-3-yl)-5-(trifluoromethyl)pyrazolo[1,5-a]pyrimidine-3-carboxamide]	10 to 1000 nM	++ (Compounds with a Cisplatin sensitization value>0.02 μM but <0.2 μM are marked with “++.”)
Nc1nn2ccc(C(F)(F)F)nc2c1C(=O)Nc1cnccc1OC1CCNCC1 [I-O-41, 2-amino-N-(4-(piperidin-4-yloxy)pyridin-3-yl)-5-(trifluoromethyl)pyrazolo[1,5-a]pyrimidine-3-carboxamide]	10 to 1000 nM	++ (Compounds with a Cisplatin sensitization value>0.02 μM but <0.2 μM are marked with “++.”)
CN(C)C1CCC(COc2ccncc2NC(=O)c2c(N)nn3ccc(C(F)(F)F)nc23)CC1 (centres unmarked) [I-O-42, 2-amino-N-(4-((4-(dimethylamino)cyclohexyl)methoxy)pyridin-3-yl)-5-(trifluoromethyl)pyrazolo[1,5-a]pyrimidine-3-carboxamide]	10 to 1000 nM	+++ (Compounds with a Cisplatin sensitization value of <0.02 μM are marked with “+++.”)
COCCN1CCC[C@@H](Oc2ccncc2NC(=O)c2c(N)nn3ccc(C(F)(F)F)nc23)C1 [I-O-43, (R)-2-amino-N-(4-((1-(2-methoxyethyl)piperidin-3-yl)oxy)pyridin-3-yl)-5-(trifluoromethyl)pyrazolo[1,5-a]pyrimidine-3-carboxamide]	10 to 1000 nM	++ (Compounds with a Cisplatin sensitization value>0.02 μM but <0.2 μM are marked with “++.”)

Continued, in another order:

Ki (ATR kinase)	Compound	Synergy with Cisplatin [1]
10 to 1000 nM	Nc1nn2ccc(C(F)(F)F)nc2c1C(=O)Nc1cnccc1OC1CCCNC1 (centres unmarked) [I-O-23, 2-amino-N-(4-(piperidin-3-yloxy)pyridin-3-yl)-5-(trifluoromethyl)pyrazolo[1,5-a]pyrimidine-3-carboxamide]	++ (Compounds with a Cisplatin sensitization value>0.02 μM but <0.2 μM are marked with “++.”)
10 to 1000 nM	Nc1nn2ccc(C(F)(F)F)nc2c1C(=O)Nc1cnccc1OC1CC2(CCN2)C1 (centres unmarked) [I-O-24, N-(4-((4r,6s)-1-azaspiro[3.3]heptan-6-yloxy)pyridin-3-yl)-2-amino-5-(trifluoromethyl)pyrazolo[1,5-a]pyrimidine-3-carboxamide]	+++ (Compounds with a Cisplatin sensitization value of <0.02 μM are marked with “+++.”)
10 to 1000 nM	Nc1nn2ccc(C(F)(F)F)nc2c1C(=O)Nc1cnccc1O[C@@H]1CCNC1 [I-O-25, (R)-2-amino-N-(4-(pyrrolidin-3-yloxy)pyridin-3-yl)-5-(trifluoromethyl)pyrazolo[1,5-a]pyrimidine-3-carboxamide]	++ (Compounds with a Cisplatin sensitization value>0.02 μM but <0.2 μM are marked with “++.”)
10 to 1000 nM	CN1CCCC(Oc2ccncc2NC(=O)c2c(N)nn3ccc(C(F)(F)F)nc23)C1 (centres unmarked) [I-O-26, 2-amino-N-(4-((1-methylpiperidin-3-yl)oxy)pyridin-3-yl)-5-(trifluoromethyl)pyrazolo[1,5-a]pyrimidine-3-carboxamide]	+++ (Compounds with a Cisplatin sensitization value of <0.02 μM are marked with “+++.”)
10 to 1000 nM	CN(C)CCCOc1ccncc1NC(=O)c1c(N)nn2ccc(C(F)(F)F)nc12 [I-O-27, 2-amino-N-(4-(3-(dimethylamino)propoxy)pyridin-3-yl)-5-(trifluoromethyl)pyrazolo[1,5-a]pyrimidine-3-carboxamide]	++ (Compounds with a Cisplatin sensitization value>0.02 μM but <0.2 μM are marked with “++.”)
10 to 1000 nM	CN1CCC[C@@H]1COc1ccncc1NC(=O)c1c(N)nn2ccc(C(F)(F)F)nc12 [I-O-28, (R)-2-amino-N-(4-((1-methylpyrrolidin-2-yl)methoxy)pyridin-3-yl)-5-(trifluoromethyl)pyrazolo[1,5-a]pyrimidine-3-carboxamide]	++ (Compounds with a Cisplatin sensitization value>0.02 μM but <0.2 μM are marked with “++.”)
10 to 1000 nM	CN(C)[C@H]1CC[C@@H](Oc2ccncc2NC(=O)c2c(N)nn3ccc(C(F)(F)F)nc23)CC1 [I-O-30, 2-amino-N-(4-(((1s,4s)-4-(dimethylamino)cyclohexyl)oxy)pyridin-3-yl)-5-(trifluoromethyl)pyrazolo[1,5-a]pyrimidine-3-carboxamide]	+++ (Compounds with a Cisplatin sensitization value of <0.02 μM are marked with “+++.”)
10 to 1000 nM	CN1CCC(Oc2ccncc2NC(=O)c2c(N)nn3ccc(C(F)(F)F)nc23)CC1 [I-O-31, 2-amino-N-(4-((1-methylpiperidin-4-yl)oxy)pyridin-3-yl)-5-(trifluoromethyl)pyrazolo[1,5-a]pyrimidine-3-carboxamide]	++ (Compounds with a Cisplatin sensitization value>0.02 μM but <0.2 μM are marked with “++.”)
10 to 1000 nM	Nc1nn2ccc(C(F)(F)F)nc2c1C(=O)Nc1cnccc1OC1CC2(CNC2)C1 [I-O-32, N-(4-(2-azaspiro[3.3]heptan-6-yloxy)pyridin-3-yl)-2-amino-5-(trifluoromethyl)pyrazolo[1,5-a]pyrimidine-3-carboxamide]	++ (Compounds with a Cisplatin sensitization value>0.02 μM but <0.2 μM are marked with “++.”)
10 to 1000 nM	CN1CCC[C@H]1COc1ccncc1NC(=O)c1c(N)nn2ccc(C(F)(F)F)nc12 [I-O-33, (S)-2-amino-N-(4-((1-methylpyrrolidin-2-yl)methoxy)pyridin-3-yl)-5-(trifluoromethyl)pyrazolo[1,5-a]pyrimidine-3-carboxamide]	++ (Compounds with a Cisplatin sensitization value>0.02 μM but <0.2 μM are marked with “++.”)
10 to 1000 nM	CN(C)C1CCC(Oc2ccncc2NC(=O)c2c(N)nn3ccc(C(F)(F)F)nc23)CC1 (centres unmarked) [I-O-35, 2-amino-N-(4-((4-(dimethylamino)cyclohexyl)oxy)pyridin-3-yl)-5-(trifluoromethyl)pyrazolo[1,5-a]pyrimidine-3-carboxamide]	+++ (Compounds with a Cisplatin sensitization value of <0.02 μM are marked with “+++.”)
